In a melting point compilation (Tetko et al.; mined from patent text by program, amines drawn as free bases though some values may be those of a salt):

Row | SMILES | melting point
1 | Brc1cnc(Sc2ncccn2)nc1 | 178 to 180 °C
2 | CCCCCCCCCCCCCCc1c[nH]c(C(=O)OC)c1 | 80 to 82 °C
3 | COc1ccccc1N1CCN(CCCn2c(=O)[nH]c3c(c2=O)CCCC3)CC1 | 212 to 214 °C
4 | O=C(O)C1Cc2c([nH]c3ccccc23)CN1C(=S)SC1CCCCC1 (stereo not given) | 150 to 151 °C
5 | O=C(O)Cn1c(=O)c(=O)n(O)c2ccc(Cl)cc21 | 280 to 282 °C
6 | CN1C(=O)C(=Cc2nc(C(C)(C)C)c(O)c(C(C)(C)C)n2)SC1=S | 226 to 228 °C
7 | Cc1c(N2CC[C@H]([C@@H](C)NC(=O)OC(C)(C)C)C2)c(F)cc2c(=O)n(N)c(=O)n(C3CC3)c12 | 84 to 86 °C
8 | CN1C(CO)=Cc2cc(S(N)(=O)=O)sc2S1(=O)=O | 144 to 146 °C
9 | CCCCCCCCCCCCCCCC(=O)SC1CCN(C(C(=O)OC)c2ccccc2F)CC1 (stereo not given) | 44 to 47 °C
10 | O=C1NC(=O)C(=Cc2cccs2)N1 | 253 to 255 °C
11 | O=[N+]([O-])c1ccc2c(c1)NP(=O)(N(CCCl)CCCl)OC2 (stereo not given) | 138 to 142 °C
12 | Oc1ccccc1CCCC1CCNCC1 | 152 °C
13 | CC(C)(C)OC(=O)c1ccc[nH]1 | 87 to 89 °C
14 | Cc1ncc([N+](=O)[O-])n1C(=O)Nc1ccccc1 | 218 to 220 °C
15 | Nc1ncc(Oc2ccc(Cl)cc2)c(N[C@H]2CC[C@H](O)CC2)n1 | 154 to 155 °C
16 | O=C1NC(=C2CCCC2)Sc2ccccc21 | 190 to 191 °C
17 | N#Cc1ccccc1-c1ccc(CCl)cn1 | 97 to 98 °C
18 | OCCSc1c(Cl)c(Cl)c(SCCO)c(Cl)c1Cl | 149 to 152 °C
19 | O=C(O)c1ccc2[nH]c3c(c2c1)CCCCCC3 | 240 to 241 °C
20 | COC(=O)C1(OC)CC(C)C(=O)C=C1O (stereo not given) | 117 to 118 °C
21 | CC(Oc1ccc([N+](=O)[O-])cc1)c1c(F)ccc(F)c1F (stereo not given) | 120 °C
22 | OC1CCCCCC/C1=C\Br (stereo not given) | 144 to 145 °C
23 | CC(=O)ON1C(C)(C)CC2(CC1(C)C)OCC(C)(C)CO2 | 109 to 111 °C
24 | CC(=O)OCCCCCn1ccc(=O)c(O)c1C | 132 to 133 °C

Row | SMILES | melting point
25 | COc1ccc2nc(C(=O)O)cnc2c1 | 248 °C
26 | COC(=O)NC1Cc2ccc([N+](=O)[O-])cc2C1OC(C)=O (stereo not given) | 164 to 167 °C
27 | CNc1nc(Cl)ccc1[N+](=O)[O-] | 114 °C
28 | COc1ccc(CC(=O)c2ccc(OC)c(F)c2)cc1F | 151 to 152 °C
29 | COc1ccc(C2C(C(=O)/C=C/c3ccc(OCc4ccccc4)c(OC)c3)C(=O)CC(c3ccc(OCc4ccccc4)cc3)C2[N+](=O)[O-])cc1 (stereo not given) | 76 to 78 °C
30 | CN(C)C(=O)N(C)c1nnc(C(C)(C)C#N)s1 | 92 to 94 °C
31 | CC(=O)NC[C@H]1CN(c2ccc(N3CCC(O)(C#N)CC3)c(F)c2)C(=O)O1 | 99 to 100 °C
32 | CN1C(=O)C(NC(=O)CCC2CCCCC2)N=C(c2ccccc2)c2cnccc21 (stereo not given) | 170 to 173 °C
33 | CC(C)CCn1c(=O)c2c(N3CCN(C)CC3)cc(Cl)cc2n(Cc2ccccc2)c1=O | 62 to 68 °C
34 | C(=CCN(c1ccccc1)c1ccccc1)CN(c1ccccc1)c1ccccc1 | 105 to 107 °C
35 | CSCCNC(N)=Nc1ccccc1N1CCOCC1 | 115 to 116 °C
36 | O=C(NO)c1cc2ccccc2cn1 | 160 to 165 °C
37 | CC(C)(C)C(=O)C(Br)C(Br)C(=O)C(C)(C)C (stereo not given) | 107 to 109 °C
38 | N#CSc1c(-c2ncon2)nn(-c2c(Cl)cc(C(F)(F)F)cc2Cl)c1N | 195 to 198 °C
39 | O=C1C=CC2=CN=C(Cc3ccccc3)N3CCC(=C23)N1 | 226 to 228 °C
40 | CN(C1=NCCO1)c1ccc(C(O)(C(F)(F)F)C(F)(F)F)cc1 | 188 to 190 °C
41 | CCOC(=O)C(C)(C)c1nsc2ccc([N+](=O)[O-])cc12 | 75 to 77 °C
42 | CCC1=C(C(=O)Nc2ccc(Cl)c(C(=O)OC(C)C)c2)SCCO1 | 90 to 92 °C
43 | O=C1c2ccccc2-c2ccncc21 | 152 to 153 °C
44 | COC(=O)CCc1conc1-c1ccc(Cl)c(F)c1 | 57 to 58 °C
45 | CC1=NN=C(c2ccc([N+](=O)[O-])cc2)c2cc(Cl)c(Cl)cc2C1 | 231 to 233 °C
46 | O=C1C(=NOCCO)Oc2ccccc21 | 110 to 111 °C
47 | COc1ccc(-c2nccc(N)n2)cc1 | 102 to 104 °C

More lines, now with the values ahead:

Row | melting point | SMILES
48 | 105 °C | COc1ccc(N(C(=O)c2c3ccccc3nc3ccccc23)S(=O)(=O)c2ccc(CCC(=O)ON3C(=O)CCC3=O)cc2)c(OC)c1
49 | 89 °C | CC1CCN(c2ccc(N)cc2C(=O)c2ccc(Cl)cc2)CC1
50 | 96 °C | CCOc1ccc2c(c1)C(C)(c1cc(C(=O)N3CCN(C)CC3)ccc1Cl)C(=O)N2S(=O)(=O)c1ccc(C(=O)NC(C)(C)C)cc1OC (stereo not given)
51 | 239 to 240 °C | COc1cc(Nc2c(C#N)cnc3cc(-c4ccc(Cn5ccnn5)cc4)ccc23)c(Cl)cc1Cl
52 | 149 to 150 °C | c1ccc2c(CCN=c3sc4ccccc4s3)c[nH]c2c1
53 | 218 to 220 °C | CCOc1ccc(-c2nc(-c3cccc(C(N)=NO)n3)cs2)cc1OCC
54 | 143 to 145 °C | CC(=O)Oc1ccc(C2COc3cc(OC(C)=O)cc(C)c3C2=O)cc1 (stereo not given)
55 | 129 to 131 °C | COC(=O)c1ccc2c(c1)Sc1ccc(F)cc1C(=O)C2
56 | 163 to 165 °C | CS(=O)(=O)Nc1cccc2c(O)ccc(N=Nc3cccc(S(=O)(=O)NCCCCCCBr)c3)c12
57 | 191 to 192 °C | C#Cc1ccc2c(c1)C(=O)N(c1ccc3c(c1)C=C3)C2=O
58 | 76 to 77 °C | CC(=O)CCc1ccc(-c2ccccc2)cc1
59 | 177 to 178 °C | Cc1c(C(=O)Nc2ccc(OCC(C)C)c(C#N)c2)cnn1-c1ccc(F)cc1
60 | 108 to 110 °C | CC(=O)N(c1cc(F)c(C#N)cc1F)c1nnnn1-c1ccc(OC(F)(F)F)cc1
61 | 179 to 180 °C | COCCn1c(=O)ccc2cnc(Nc3ccccc3)nc21
62 | 143 to 144 °C | Nc1cccc(Cn2c(-c3ccccc3)ccc2-c2ccccc2)n1
63 | 200 to 202 °C | CCC(C)(C)c1cc(-c2ccc(CC3SC(N4CCOCC4)=NC3=O)s2)ccc1O (stereo not given)
64 | 170 to 171 °C | CC(C)CCC(=O)NC(C)(Cc1c[nH]c2ccccc12)C(=O)NC(Cc1ccccc1)C(N)=O (racemic)
65 | 162 to 165 °C | O=C(O)Cc1ccc(NC(=O)C(Cn2ccnc2)NS(=O)(=O)c2ccc(F)cc2)cc1 (racemic)
66 | 166 to 168 °C | Cc1cc(C)c(Nc2nc(C)ncc2S(=O)(=O)c2ccc(OCc3ccccc3)cc2)c(C)c1
67 | 90 to 95 °C | NS(=O)(=O)N(c1ccccc1)c1cccc(C(c2c(O)c3c(oc2=O)CCCCCC3)C2CC2)c1 (stereo not given)
68 | 136 to 137 °C | COC1(c2cccc(OCc3ccc(-n4ccnc4C)cc3)c2)CCOCC1
69 | 188 to 190 °C | O=C(O)C1CCc2c(c3ccccc3n2C(=O)c2ccccc2)C1 (stereo not given)
70 | 183 to 184 °C | O=C1OC(=O)C(c2ccccc2)=C1c1ccccc1
71 | 161 °C | c1ccc(COc2ccc3ccc(OCc4ccccc4)cc3c2)cc1
72 | 130 to 131 °C | Cc1nc(-c2ccccc2)nc(-c2cccc([N+](=O)[O-])c2)c1C(C)N1CCN(C)CC1 (stereo not given)
73 | 126 °C | Cc1nc2n(c(=O)c1CCN1CCC(C(=O)c3ccc(F)cc3)CC1)CCCN2Cc1ccccc1
74 | 107 to 108 °C | COc1ccc(C(=O)C=Cc2ccccc2[N+](=O)[O-])c(OC)c1OC

Row | melting point | SMILES
75 | 222 °C | Cc1ccc2c(=O)nc(-c3cccc(CCC(=O)O)n3)sc2c1
76 | 219 °C | Cc1c(NC(=O)c2cccc(OCCN)c2)c2ccccn2c1C(=O)c1ccc(NC(=O)C(F)(F)F)c(C(=O)OCc2ccccc2)c1
77 | 177 °C | O=C(c1ccc(O)cc1)c1cccc2[nH]ccc12
78 | 179 to 181 °C | CC(C)c1ccc(CCCN(C)[C@H]2CC[C@H](c3ccc4[nH]c(=O)oc4c3)CC2)cc1
79 | 105 to 106 °C | Clc1ccc(OCc2ccccc2)c(C=Cc2ccccn2)c1
80 | 122 °C | COc1ccc(C2CCCN2S(=O)(=O)c2ccc(C)cc2)cc1 (racemic)
81 | 106 to 108 °C | COc1nc(C)cnc1NS(=O)(=O)c1cccnc1-c1ccc(COCCO)cc1
82 | 191 to 192 °C | Cc1nnc(-c2ccc3occ(-c4ccc(S(=O)(=O)CF)cc4)c3c2)o1
83 | 154 to 163 °C | Cc1cn(-c2ccc(NC(=O)c3ccc(C)c(Nc4nccc(-c5cccnc5)n4)c3)cc2C(F)(F)F)cn1
84 | 121 to 122 °C | CCC(CC)(NC(=O)CCn1cnc(CC#N)c1)c1ccccc1
85 | 71 to 74 °C | CCCc1cc(Nc2ccn(-c3ccccc3)n2)cc(CCC)c1OC(C)=O
86 | 173 to 174 °C | CS(=O)(=O)c1ccc(-c2c(-c3ccccc3)sc3ccccc23)cc1
87 | 262 to 264 °C | CCOC(=O)c1oc2cc(O)ccc2c(=O)c1C#N
88 | 117 to 118 °C | Cc1oc(-c2ccccc2)nc1COc1ccc(Cn2cc(C=O)c(-c3ccccc3)c2)cc1
89 | 115 °C | O=C(O)C(c1ccc2c(c1)OCO2)n1nc(-c2ccccn2)ccc1=O (stereo not given)
90 | 155 to 162 °C | CCCc1c(O)ccc2c(=O)cc(C(=O)OCC)oc12
91 | > 300 °C | O=C(O)c1c2c(nc3ccc(F)cc13)-c1ccc(-c3cccc(F)c3)cc1CCC2
92 | 142 to 143 °C | O=C(O)C(=O)c1ccc(OC/C=C/c2ccc3ccccc3c2)cc1
93 | 154 to 159 °C | Cc1sccc1C1(c2cccc(-c3cncnc3)c2)N=C(N)N(C)C1=O (stereo not given)
94 | 193 to 194 °C | O=C(O)CS(=O)(=O)CCCCCNS(=O)(=O)c1ccc(Cl)cc1
95 | 277 to 278 °C | COc1cc(C(=O)O)cc(OC)c1-c1ccc(C[C@H](NC(=O)c2c(Cl)cccc2Cl)C(=O)O)cc1
96 | 253 to 255 °C | CC(=O)Nc1ccc(/C=C/C(=O)/C=C/c2ccc(NC(C)=O)cc2)cc1
97 | 148 °C | Cc1cc(-n2cccn2)c2cccc(OCc3c(Cl)ccc(S(=O)(=O)N4CCC[C@H]4C(=O)O)c3Cl)c2n1
98 | 148 to 150 °C | Cc1ccc(S(=O)(=O)N2CC(CO)(CO)C2)cc1
99 | 193 to 194 °C | Cc1cccc(CCC(O)c2ccccc2)c1NC(=O)CC1c2ccccc2Oc2ccccc21 (stereo not given)
100 | 79 to 80 °C | CC(O)(C(=O)Nc1cc(S(=O)(=O)c2ccccc2)ccc1Cl)C(F)(F)F (stereo not given)
